Test results as given in patent US12570612B2, “Substituted nitrogen heterocyclic compound and anesthetic effect thereof” (priority 2019, dated 2026).
Where two headings read alike, the source gives them in different places.

Legend:
Assay type in all cases: in vivo
Sprague-Dawley rats [1] = conditions: tail vein
Sprague-Dawley rats [2] = experiment: animal or person; conditions: rats; for ED50: LORR, up and down method, tail vein, class symbols
From the text: Evaluating indicator: The end point of anesthesia: the disappearance of forepaw righting reflex (lorr) was used as the end point of anesthesia; General anesthesia effect: the disappearance of forepaw righting reflex in rats lasting for 30 seconds is taken as the index of general anesthesia effect; Anesthesia recovery index: the recovery of rat forepaw righting reflex was used as the index of anesthesia recovery.

Sprague-Dawley rats [3] = experiment: Pharmacological effect and adverse reactions under the equivalent dose (2ED50), Group D compounds; conditions: for Righting reflex duration / Sedation duration / Onset time: 2ED50, tail vein, rats, n=8; for Adverse reaction: Convulsions / Adverse reaction: Cough, broken-winded / Adverse reaction: Euphoria / Adverse reaction: Four limbs rigidity / Adverse reaction: Red urine / Adverse reaction: Slower breathing, Tetany convulsion / Adverse reaction: Systemic stiffness, Convulsions, Opisthotonus / Adverse reaction: Tongue stretching / Adverse reaction: Tremor: equivalent dose (2 × ED50), number of rats of n = 8
From the text: Evaluation index: onset time: from the completion of drug injection to the disappearance of forepaw righting reflex in rats; Duration of anesthesia: the time from the disappearance of rat forepaw righting reflex to the recovery of rat forepaw righting reflex; Recovery time of anesthesia: the time from the […] to complete recovery;

[4] = Rattus norvegicus, read-out: ED50

SMILES | Minimal lethal dose (Sprague-Dawley rats [1]) | ED50 (Sprague-Dawley rats [2]; [4]) | Approximate therapeutic index (Sprague-Dawley rats [2]) | Righting reflex duration (Sprague-Dawley rats [3]) | Sedation duration (Sprague-Dawley rats [3]) | Onset time (Sprague-Dawley rats [3]; unit s) | Adverse reaction: Convulsions (Sprague-Dawley rats [3]) | Adverse reaction: Cough, broken-winded (Sprague-Dawley rats [3]) | Adverse reaction: Euphoria (Sprague-Dawley rats [3]) | Adverse reaction: Four limbs rigidity (Sprague-Dawley rats [3]) | Adverse reaction: Red urine (Sprague-Dawley rats [3]) | Adverse reaction: Slower breathing, Tetany convulsion (Sprague-Dawley rats [3]) | Adverse reaction: Systemic stiffness, Convulsions, Opisthotonus (Sprague-Dawley rats [3]) | Adverse reaction: Tongue stretching (Sprague-Dawley rats [3]) | Adverse reaction: Tremor (Sprague-Dawley rats [3]) | ED50 (Sprague-Dawley rats [2]) | Onset time (Sprague-Dawley rats [3]; unit min)
CCOC(OCC)C(=O)c1cncn1[C@H](C)c1ccccc1 [Compound D88] | >2.6 mg/kg | 1 to 2 mg/kg | >10.3 | 1.86 ± 1.02 min | 7.08 ± 1.06 min | <30 s | 0 | 0 | 0 | 1 | 8 | 0 | 7 | 1 | 1 |  | 
COC(=O)C(=O)c1cncn1[C@H](C)c1ccccc1 [Compound D80] | >12.2 mg/kg | > 6 mg/kg | >2.9 | 1.58 ± 0.61 min | 6.42 ± 1.68 min | <30 s | 0 | 0 | 0 | 4 | 8 | 0 | 0 | 0 | 0 |  | 
CCOC(OC)(OC)C(=O)c1cncn1[C@H](C)c1ccccc1 [Compound D78] | >6.8 mg/kg | 0.5 to 1 mg/kg | >6.2 | 4.02 ± 1.35 min | 7.29 ± 1.20 min | <30 s | 0 | 0 | 0 | 0 | 8 | 0 | 2 | 1 | 0 |  | 
CCOC(OCC)C(=O)c1c(F)ncn1[C@H](C)c1ccccc1 [Compound D101] | >9.3 mg/kg | 0.04 to 0.5 mg/kg | >10.5 | 1.80 ± 0.58 min | 7.20 ± 3.21 min | <30 s | 0 | 0 | 0 | 0 | 8 | 0 | 2 | 0 | 0 |  | 
C=CCOCC(OC)(OC)C(=O)c1cncn1[C@H](C)c1ccccc1 [Compound D75] | >11.2 mg/kg |  | >5.4 | 1.59 ± 0.67 min | 5.28 ± 0.68 min | <30 s | 0 | 0 | 0 | 0 | 8 | 0 | 0 | 0 | 0 | +++++ (+++++ indicates that the measured ED50 is greater than 6.00 mg/kg (excluding 6.00 mg/kg)) | 
C[C@H](c1ccccc1)n1cncc1C(=O)C(=O)OCC(C)(C)C [Compound D86] | >9.8 mg/kg | 1 to 2 mg/kg | >7.3 | 1.24 ± 0.12 min | 7.88 ± 1.94 min |  | 0 | 0 | 0 | 0 | 8 | 0 | 2 | 0 | 0 |  | <60 s
C=CCOC(OC)(OC)C(=O)c1ccnn1[C@H](C)c1ccccc1 [Compound D7] | >3.2 mg/kg | 0.5 to 1 mg/kg | >5.4 | 0.55 ± 0.59 min | 8.52 ± 2.29 min |  | 0 | 0 | 0 | 1 | 8 | 0 | 0 | 1 | 1 |  | <60 s
CCOC(OC)(OCC)C(=O)c1cncn1[C@H](C)c1ccccc1 [Compound D79] | >2.7 mg/kg | 0.5 to 1 mg/kg | >6.4 | 1.75 ± 0.76 min | 5.84 ± 1.46 min | <30 s | 6 | 0 | 0 | 0 | 8 | 0 | 0 | 0 | 1 |  | 
COC(OC)(OCC(C)(C)C)C(=O)c1ccnn1[C@H](C)c1ccccc1 [Compound D6] | >12.4 mg/kg | 2 to 6 mg/kg | >7.3 | 1.33 ± 0.19 min | 7.35 ± 1.45 min |  | 0 | 0 | 0 | 1 | 8 | 0 | 0 | 0 | 2 |  | <60 s
C#CCOCC(OC)(OC)C(=O)c1cncn1[C@H](C)c1ccccc1 [Compound D74] | >10.2 mg/kg |  | >16.6 | 1.29 ± 0.49 min | 4.78 ± 1.24 min |  | 0 | 0 | 0 | 1 | 8 | 0 | 0 | 0 | 1 | +++++ (+++++ indicates that the measured ED50 is greater than 6.00 mg/kg (excluding 6.00 mg/kg)) | <60 s
